The values below come from patent publication US6573059B1, “Use of the regulatory subunit of the camp dependent protein kinase (PKA) from dictyostelium for camp measurements” (RMF Dictagene S.A., priority 2000, dated 2003).

The structures appear in SMILES notation. Where “and” joins values, the source holds several entries; their conditions need not be identical. Identical values can stand only once. Like-named read-outs stand apart in the source and are kept apart here.

The target in assay [1] is T1, R26-GFP (truncated R subunit of cAMP dependent protein kinase (PKA), cAMP binding site A, fused to w7 GFP) (Dictyostelium discoideum, UniProt P05987).
T1 sequence (P05987 1-170): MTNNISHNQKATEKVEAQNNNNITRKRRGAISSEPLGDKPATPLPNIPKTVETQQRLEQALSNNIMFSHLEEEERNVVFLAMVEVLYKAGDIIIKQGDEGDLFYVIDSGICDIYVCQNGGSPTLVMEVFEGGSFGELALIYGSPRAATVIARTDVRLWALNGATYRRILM
The experiment in a line: FRET titration and competition for cyclic nucleotide binding to purified R26-GFP. The protocol:
Fluorescently labelled cGMP (8-{{2-{(Fluoresceinylthioureido)amino}ethyl}thio} guanosine-3′, 5′-cyclic, Biolog) was added to purified R26-GFP and fluorescence emission recorded while exciting at 433 nm.
In a further experiment, unlabelled cAMP was added in a 5 fold excess over 8-fluo-cGMP.
The concentration of labelled 8-fluo-cGMP was varied while recording fluorescence changes (FIG. 3, inset).
In order to measure the real KD for cAMP, a competition experiment was performed by varying stepwise 8-fluo-cGMP concentration For each 8-fluo-cGMP concentration, increasing concentrations of unlabelled cAMP was added, allowing to calculate the apparent KD for cAMP in each Case (FIG. 4).
For FRET measurements, R-26-GFP was diluted to about 0.1 μM. Excitation was performed at 433 nm, while emission was recorded over a range from 450 to 550 nm in a PTI C60 spectrofluorimeter (Photon Technology International).
Different concentrations of 8-Fluo-cGMP (8-{{2-{(Fluoresecinylthioureido)amino}ethyl}thio} guanosine 3′, 5′-cyclic monophosphate, Biolog) were added as indicated (5 fold excess in FIG. 2, open squares) and emission spectra were recorded again. […] In competition experiments, unlabelled cAMP was added at the indicated concentrations (FIG. 3, 100 μM).

For assay [2], the target named is regulatory subunit of the cAMP dependent protein kinase (PKA) from Dictyostelium (Dictyostelium discoideum, UniProt P05987). Particulars: read-out: KD for cAMP; Dictyostelium R subunit, background section; cited from earlier work.
regulatory subunit of the cAMP dependent protein kinase (PKA) from Dictyostelium, sequence (P05987 whole entry): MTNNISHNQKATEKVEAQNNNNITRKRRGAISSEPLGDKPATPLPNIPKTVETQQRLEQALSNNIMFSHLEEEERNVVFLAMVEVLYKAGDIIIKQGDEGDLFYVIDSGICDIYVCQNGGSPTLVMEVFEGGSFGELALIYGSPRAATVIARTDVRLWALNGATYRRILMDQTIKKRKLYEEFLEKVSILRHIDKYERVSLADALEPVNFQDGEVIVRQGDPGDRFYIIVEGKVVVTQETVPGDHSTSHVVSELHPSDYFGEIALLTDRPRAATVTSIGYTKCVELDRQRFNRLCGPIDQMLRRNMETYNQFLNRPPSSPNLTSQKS
Assay [3] deals with mammalian enzymes (PKA regulatory subunit). The note with it: read-out: KD for cAMP, background section; cited from earlier work.
Assay [4] has as its system double GFP-R (R subunit with w7 and S65T GFPs flanking cAMP binding site A). The note with it: 500 μM cAMP, emission spectrum, excitation 434 nm.
Method: The spectral properties of the double GFP-R were determined using a spectrofluorimeter PTI C60 with photomultiplicator. […] The shoulder corresponds to the emission of the w7, whereas the major peak represents S65T emission.
A conformational change could also result simply from the binding of cAMP. The double GFP-R was incubated with increasing concentrations of cAMP.
Emission spectra from 450 to 550 nm were recorded using a fixed excitation at 434 nm with a bandwidth of 8 nm and an integration time between 0.2 and 1 sec (FIG. 6).
In a second experiment, partially purified double GFP-R was incubated in the presence of increasing concentration of cAMP (FIG. 6B).

For `Nc1nc2c(ncn2[C@@H]2O[C@@H]3COP(=O)(O)O[C@H]3[C@H]2O)c(=O)[nH]1` [cGMP], the Kd in assay [1] (reverse competition experiment, read-out: KD for cGMP) is roughly 1850 nM.
With `Nc1ncnc2c1ncn2[C@@H]1O[C@@H]2COP(=O)(O)O[C@H]2[C@H]1O` [cAMP], the Kd was roughly 20 nM in assay [2]; 10 to 30 nM in assay [3]; 20 nM and ~20 nM in assay [1] (true KD for cAMP, competition of unlabelled cAMP with 8-fluo-cGMP, apparent KDs extrapolated to 0). The “amplitude change compared to double GFP/R alone” value in assay [4] is recorded as “about 10%”.
Compound `Nc1nc2c(nc(SCCNC(=S)Nc3ccc4c(c3)C(=O)OC43c4ccc(O)cc4Oc4cc(O)ccc43)n2[C@@H]2O[C@@H]3COP(=O)(O)O[C@H]3[C@H]2O)c(=O)[nH]1` [8-fluo-cGMP, 8-{{2-{(Fluoresecinylthioureido)amino}ethyl}thio} guanosine 3′, 5′-cyclic monophosphate] displayed a Kd in assay [1] of roughly 80 nM.
Still for that read-out and setting: the result for `Nc1ncnc2c1nc(SCCNC(=S)Nc1ccc3c(c1)C(=O)OC31c3ccc(O)cc3Oc3cc(O)ccc31)n2[C@@H]1O[C@@H]2COP(=O)(O)O[C@H]2[C@H]1O` [8-fluo-cAMP, 8-{{2-{(Fluoresceinylthioureido)amino}ethyl}thio}adenosine-3′,5′-cyclic monophosphate] reads roughly 4.5 nM.
